This is an account of results in patent US20240010726A1, “LFA-1 SIGNALLING MEDIATOR FOR USE IN CANCER THERAPY” (Universität Basel, priority 2020, published 2024).

For one assay, the system named is PSMA+ PC3-PIP cell line. Kind of assay: Cytotoxicity assay with anti-PSMA CAR T cells (IncuCyte). Type of assay: cell-based, human. To be noted: time-lapse killing; E:T 2:1; 0 mM vs 0.6 mM Mg^2+. The protocol: FIG. 3: Magnesium regulates LFA-1 mediated T cell activation and cytotoxicity as well BiTE- and CAR T-cell functionality. (a) Glycolytic switch of murine WT and LFA-1^-/- CTLs upon injection of anti-CD3/28 Ab in medium containing 1.2 mM Mg^2+ and 0 mM Mg^2+, presented as quantification of summarized data with n=4 mice. (b) Calcium flux in WT and LFA-1^-/- Jurkat T cells stimulated with anti-CD3 Ab in 1.2 mM and 0 mM Mg^2+ medium, respectively. Cells were loaded with Fluo4, and signal intensity as recorded by plate reader, was normalized to unstimulated baseline values. […] Quantified results of n=3 mice with 3 technical replicates each. […] The effector to target cell ratio was 3:1. Results are quantified of n=3 mice with 3 technical replicates each. (e) Representative CD11a (LFA-1) surface expression on human naïve and EM CD8 T cells, PHA T cell blasts and REP T cells, assessed by flow cytometry. […] The effector to target cell ratio was 1:1. Data is presented as quantified results of n=5 healthy donors (f, g, h), n=3 healthy donors with 2 technical replicates each or n=1 healthy donor with 4 technical replicates (j). […] Data is presented as quantified results of n=1 healthy donor with 4 technical replicates. […] (p) Abundance of IFNγ in cell culture supernatants corresponding to the conditions depicted in (o) at 24 hours was determined by ELISA (n=8, 3 independent experiments). […]

The next assay deals with PHA T cell blasts. Kind of assay: CD69 expression of PHA T cell blasts at increasing plate-bound anti-CD3 mAb. The class given is cell-based, human. To be noted: augmenting concentrations of plate-bound anti-CD3 mAb; ±Mg^2+. The protocol:
FIG. 4: Magnesium regulates LFA-1 mediated T cell activation and cytotoxicity within physiologic range • (a) Metabolic flux analysis of human EM CD8 T cells upon supra-physiologic activation with anti-CD3 and anti-CD28 Ab, and additional injection of secondary, cross-linking anti-CD3/28 Ab, in medium containing 1.2 mM Mg^2+, 0 mM Mg^2+, or medium which was reconstituted to 1.2 mM Mg^2+ immediately prior to activation (0→1.2 mM Mg^2+). Pooled results from n=6 healthy donors from 3 independent experiments. (b) CD69 expression of PHA T cell blasts upon activation with indicated concentrations of plate-bound anti-CD3 mAb in ±Mg^2+ containing medium. (c) Caspase-3 activity in EL4 target cells after co-culture for 4 hours with murine WT and LFA-1^−/− CTLs in medium containing 1.2 mM Mg^2+ or 0 mM Mg^2+, in presence of PHA at the indicated concentrations. The effector to target cell ratio was 3:1. Pooled results, n=3-4, from 2 independent experiments. (d) Cytotoxicity assay using WT and LFA-1^−/− OT1 CTLs, co-cultured for 4 hours in medium containing 1.2 mM Mg^2+ or 0 mM Mg^2+ with luciferase-expressing EL4 target cells (pulsed with altered OVA peptides at 10^−6 M). Cytotoxicity was quantified after adding luciferin to medium and measuring luminescent signal intensity. […] Cytotoxicity was quantified after adding luciferin to medium and measuring luminescent signal intensity. […]

Turning to `[Mg+2]` [Mg^2+, Magnesium], the “Cytolytic activity of CAR T cells against tumor target cells” value in the assay on PSMA+ PC3-PIP cell line is reported as “impaired the cytolytic activity”. In addition, in the assay with PHA T cell blasts, the “CD69 expression of PHA T cell blasts” value is on record as “less pronounced dependence”.
